Results from patent publication US6835720B2, “Compounds having antiviral activity” (Nissin Food Products Co., Ltd., priority 1996, dated 2004).

Columns and labels:
[1] = system: Herpes simplex II virus (HSVII); assay: Plaque reduction assay, Herpes simplex II virus; assay type: cell-based
Description: (§1) Antiviral activity against human Parainfluenza virus, Respiratory syncytial virus (RSV) and Herpes simplex II virus (HSVII) was determined by the plaque reduction assay, while that against Feline immunodeficiency virus (FIV) and Feline leukemia virus (FeLV) by the reverse transcriptase assay and ELISA, respectively.
(§2) Each virus was obtained from ATCC. As host cells, VERO cells were used for Parainfluenza virus, and HEP2 cells for other viruses.
(§3) To fibroblasts growing in a T150 flask were added virus-infected cells, and the cells were incubated until they reached 60-80% infection. Cells were trypsinized, recovered and used as the virus stock. As the cell culture medium was used E-MEM containing 2-5% FBS, 100 U/ml Penicillin, 2.5 μg/ml Aniphotericin and 10 μg/ml Gentamycin.
(§4) Compound related to Example 29 was appropriately diluted to the concentrations of 500, 100, 50, 10 and 5 μg/ml with the culture medium or methyl cellulose. As the reference drug for HSV II was used Acyclovir. […]
(§5) Cells were cultured at 36-38° C. under the 5-7% CO2 atmosphere, and examined for the appearance of plaques under microscope. […] Number of plaques counted in the sample well was compared with that in the virus control well, and the decrease in the number of plaques was used to express the antiviral activity.

human plasma = assay: Anti-coagulation activity in human plasma; conditions: calcium chloride, 37° C. for 30 min, judged with the naked eye
mice = assay: Toxicity study, intravenous administration to mice; assay type: in vivo; conditions: intravenously administered
Description: Compounds were intravenously administered to mice, and LD50s (mg/kg) were determined.

AIDS virus (HIV-1, IIIb) = assay type: cell-based; conditions: HIV-1 IIIb in H9 cells, p24 in culture supernatant by ELISA on the 6th day
Description: (§6) Samples of various concentrations (25 μl) are distributed into a 24-well microplate, immediately added with human T cells (H9 cell line, 1.2×10^5/ml) (1 ml), covered, and incubated at 37° C. for 1 h. Then, AIDS virus (HIV-1, IIIb, 100 TCID 50) (25 μl) is added to each well and thoroughly mixed, covered again, and incubated under the CO2 atmosphere at 37° C. for 3 days. On the fourth day, aliquots (200 μl) of the culture medium from each well are transferred into a fresh microplate. The growth medium (500 μl) is added to each well, and further incubated for 2 days.
(§7) On the 6th day, aliquots (90 μl) of the culture supernatant are withdrawn, and assayed the amount of p24, a constituent of HIV-1, by ELISA method using the anti-p24 antibody to assess the growth of said virus. Also, using the remaining cell culture suspension (100 μl), viable cells are counted by the MTT method. Experimental values are expressed as the ratios (%) to the negative control value (measured using the solvent to dissolve test compounds as the sample) to represent the anti-HIV activity and cytotoxicity. Then, for the unified representation of the anti-HIV activity and cytotoxicity, the concentrations of test compounds at their 50% values are obtained from the activity-concentration curves and the cytotoxicity-concentration, and represented as IC50 and CC50, respectively.

[2] = system: human T cells (H9 cell line); assay: Cytotoxicity, viable cells counted by the MTT method; assay type: cell-based
Description: as §6, §7

[3] = system: Feline leukemia virus (FeLV); assay: FeLV antigen ELISA, Feline leukemia virus; assay type: cell-based
Description: as §1
(§8) Each virus was obtained from ATCC. FIV was cultured with CRFK cells in Eagle's balanced salt medium containing 10% FBS, and the supernatant was used as the virus stock. As FeLV was used ATCC VR-717.
(§9) Compound related to Example 29 was diluted with the medium to similar concentrations described above.
(§10) For each single strain of virus, the assay was performed in the following combinations of conditions.
(§11) After CRFL cells were cultured in monolayer in 96-well microplates, the supernatant was discarded. […]
(§12) Using supernatants as the sample from the cell control well, the virus control well and the test well, the reverse transcriptase of FIV or FeLV antigen contained therein were quantitated using assay kits from Amersham LIFESCIENCE and Synbiotics, respectively. Anti-viral activity was expressed as that ratio (%) of the value of the test well to that of the virus control well after both values were subtracted with the value of the cell control well, respectively.

[4] = system: Respiratory syncytial virus (RSV); assay: Plaque reduction assay, Respiratory syncytial virus; assay type: cell-based; conditions: HEP2 cells
Description: as §1, §2, §3, §4, §5

[5] = system: human Parainfluenza virus; assay: Plaque reduction assay, Parainfluenza virus; assay type: cell-based; conditions: VERO cells
Description: as §1, §2, §3, §4, §5

[6] = system: Feline immunodeficiency virus (FIV); assay: Reverse transcriptase assay, Feline immunodeficiency virus; assay type: cell-based; conditions: CRFK cells
Description: as §1, §8, §9, §10, §11, §12

Row | Compound | IC50 ([1]; HEp-2, HEP2 cells) [µM] | Minimum concentration exhibiting anticoagulant action (human plasma) [µM] | LD50 (mice) [mg/kg] | IC50 (AIDS virus (HIV-1, IIIb)) [µM] | CC50 [2] [µM] | IC50 [3] [µM] | IC50 [4] [µM] | IC50 [5] [µM] | IC50 ([1]; HEP2 cells) [µM] | IC50 [6] [µM]
1 | Nc1nc2c(ncn2COCCO)c(=O)[nH]1 [Acyclovir, reference compound] | 21.6 | – | – | – | – | – | – | – | – | –
2 | CCCCCCCCCCCCCCCCCCCCCCOC[C@H](CO[C@]1(C(=O)[O-])C[C@H](OS(=O)(=O)[O-])[C@@H](NC(C)=O)[C@H]([C@H](OS(=O)(=O)[O-])[C@@H](COS(=O)(=O)[O-])OS(=O)(=O)[O-])O1)OCCCCCCCCCCCCCCCCCCCCCC.[Na+].[Na+].[Na+].[Na+].[Na+] [Example 12, 3-O-[Sodium{5-acetamido-3,5-dideoxy-4,7,8,9-tetra-O-(sodiumoxysulfonyl)-D-glycero-α-D-galacto-2-nonulopyranosyl}onate]-1,2-di-O-docosyl-Sn-glycerol] | – | 900 | 2000 | 0.8 | > 200 | – | – | – | – | –
3 | CCCCCCCCCCCCCCCCCCCCCCOCC(COC1(C(=O)[O-])CC(OS(=O)(=O)[O-])C(NC(C)=O)C(C(OS(=O)(=O)[O-])C(COS(=O)(=O)[O-])OS(=O)(=O)[O-])O1)OCCCCCCCCCCCCCCCCCCCCCC.[Na+].[Na+].[Na+].[Na+].[Na+] [Example 13, 3-O-[Sodium{5-acetamido-3,5-dideoxy-4,7,8,9-tetra-O-(sodiumoxysulfonyl)-D-glycero-β-D-galacto-2-nonulopyranosyl}onate]-1,2-di-O-docosyl-Sn-glycerol] | – | 1200 | 2000 | 1.6 | > 200 | – | – | – | – | –
4 | CCCCCCCCCCCCCCCCCCCCCCOCC(C)(COCCCCCCCCCCCCCCCCCCCCCC)COC1(C(=O)[O-])CC(OS(=O)(=O)[O-])C(NC(C)=O)C(C(OS(=O)(=O)[O-])C(COS(=O)(=O)[O-])OS(=O)(=O)[O-])O1.[Na+].[Na+].[Na+].[Na+].[Na+] [Example 29, Sodium[2,2-bis(docosyloxymethyl)propyl 5-acetamido-3,5-dideoxy-4,7,8,9-tetra-O-(sodiumoxysulfonyl)-D-glycero-α-D-galacto-2-nonulopyranosid]onate] | – | 900 | 2000 | 1.6 | > 20 | 58.3 | 5.1 | 37.6 | 45.2 | 4.5
